Laboratory results reported in ChEMBL document CHEMBL1201862, “PubChem BioAssay data set” (2004).
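Cells were grown in 96-well plates and exposed to each compound for 48 hours at five concentrations; endpoints were interpolated linearly between bracketing concentrations, or set to the highest concentration if not reached. Abbreviation: GI50, concentration required for 50% inhibition of growth.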 Activity calls are given as the source filed them. Cut-off read from the data, not from the text of the source: active = GI50 up to about 1.1 µM and inactive = higher.

Key:
Test in all cases: growth of human tumour cells (NCI), 48 h
CAKI-1 = tested on: CAKI-1
DU-145 = tested on: DU-145
EKVX = tested on: EKVX
HCT-15 = tested on: HCT-15
HOP-92 = tested on: HOP-92
KM12 = tested on: KM12
LOX IMVI = tested on: LOX IMVI
M14 = tested on: M14
NCI-H23 = tested on: NCI-H23
NCI-H460 = tested on: NCI-H460
OVCAR-3 = tested on: OVCAR-3
OVCAR-8 = tested on: OVCAR-8
SK-MEL-5 = tested on: SK-MEL-5
U-251 = tested on: U-251
RPMI-8226 = tested on: RPMI-8226
RXF 393 = tested on: RXF 393
A498 = tested on: A498
NCI-H522 = tested on: NCI-H522
UACC-62 = tested on: UACC-62
Hs-578T = tested on: Hs-578T

Structure (SMILES) | GI50 (CAKI-1) | GI50 (DU-145) | GI50 (EKVX) | GI50 (HCT-15) | GI50 (HOP-92) | GI50 (KM12) | GI50 (LOX IMVI) | GI50 (M14) | GI50 (NCI-H23) | GI50 (NCI-H460) | GI50 (OVCAR-3) | GI50 (OVCAR-8) | GI50 (SK-MEL-5) | GI50 (U-251) | GI50 (RPMI-8226) | GI50 (RXF 393) | GI50 (A498) | GI50 (NCI-H522) | GI50 (UACC-62) | GI50 (Hs-578T)
O=C1Nc2ccccc2/C1=N/Nc1nc(-c2ccc([N+](=O)[O-])cc2)cs1 | 17.9 µM (inactive) | 26.5 µM (inactive) | 61 µM (inactive) | 14.5 µM | 17.4 µM (inactive) | 28.5 µM (inactive) | 35.6 µM (inactive) | 15 µM (inactive) | 27.7 µM (inactive) | 11 µM (inactive) | 30.8 µM (inactive) | 16.8 µM (inactive) | 31.7 µM (inactive) | 57 µM (inactive) | – | – | – | – | – | –
Cc1ccc(S(=NS(=O)(=O)c2ccc(C)cc2)c2ccc(C)cc2)cc1 | – | > 100 µM (inactive) | 86.5 µM (inactive) | 57 µM | > 100 µM (inactive) | 48.5 µM (inactive) | – | > 100 µM (inactive) | 51.6 µM (inactive) | > 100 µM (inactive) | 76 µM (inactive) | 71.6 µM (inactive) | – | 57.5 µM (inactive) | > 100 µM (inactive) | 81.8 µM (inactive) | – | – | – | –
S=c1[nH]n2c(CCCCCCCCc3nnc4sc(=S)[nH]n34)nnc2s1 | > 100 µM (inactive) | > 100 µM (inactive) | > 100 µM (inactive) | > 100 µM | > 100 µM (inactive) | > 100 µM (inactive) | – | > 100 µM (inactive) | > 100 µM (inactive) | > 100 µM (inactive) | > 100 µM (inactive) | > 100 µM (inactive) | – | > 100 µM (inactive) | > 100 µM (inactive) | – | > 100 µM (inactive) | > 100 µM (inactive) | > 100 µM (inactive) | –
COc1cccc(C2C(C(=O)Nc3cc(=O)n(C)c(=O)n3C)=C(C)NC(C)=C2C(=O)Nc2cc(=O)n(C)c(=O)n2C)c1O | > 100 µM (inactive) | – | > 100 µM (inactive) | – | > 100 µM (inactive) | > 100 µM (inactive) | > 100 µM (inactive) | > 100 µM (inactive) | > 100 µM (inactive) | > 100 µM (inactive) | > 100 µM (inactive) | > 100 µM (inactive) | > 100 µM (inactive) | > 100 µM (inactive) | 66.1 µM (inactive) | > 100 µM (inactive) | > 100 µM (inactive) | > 100 µM (inactive) | – | –
CC(C)CC(O)P(=O)(O)O.NC1CCCCC1 (configuration not stated) | > 100 µM (inactive) | > 100 µM (inactive) | > 100 µM (inactive) | – | – | > 100 µM (inactive) | – | > 100 µM (inactive) | – | > 100 µM (inactive) | > 100 µM (inactive) | – | > 100 µM (inactive) | > 100 µM (inactive) | > 100 µM (inactive) | > 100 µM (inactive) | > 100 µM (inactive) | – | > 100 µM (inactive) | –
CCOc1ccc(NC(=O)CC2C(=O)Nc3ccccc3[S+]2[O-])cc1 (configuration not stated) | > 67 µM (inactive) | – | > 46.5 µM (inactive) | > 100 µM | 23.4 µM (inactive) | > 100 µM (inactive) | > 100 µM (inactive) | > 100 µM (inactive) | > 76.6 µM (inactive) | > 80.4 µM (inactive) | > 59.7 µM (inactive) | 57.9 µM (inactive) | > 100 µM (inactive) | 52.4 µM (inactive) | > 100 µM (inactive) | 37.8 µM (inactive) | > 64 µM (inactive) | > 100 µM (inactive) | > 46.5 µM (inactive) | –
O=C1CN(c2cccc(C(F)(F)F)c2)C(=O)CN1NCNN1CC(=O)N(c2cccc(C(F)(F)F)c2)CC1=O | – | – | > 100 µM (inactive) | > 100 µM | – | 36 µM (inactive) | – | > 100 µM (inactive) | – | > 100 µM (inactive) | – | > 100 µM (inactive) | > 100 µM (inactive) | > 100 µM (inactive) | > 100 µM (inactive) | – | – | 52.5 µM (inactive) | – | > 100 µM (inactive)
COP(=O)(OC)C(O)CC(C)C (configuration not stated) | > 100 µM (inactive) | > 100 µM (inactive) | > 100 µM (inactive) | – | – | > 100 µM (inactive) | – | > 100 µM (inactive) | – | > 100 µM (inactive) | > 100 µM (inactive) | – | > 100 µM (inactive) | > 100 µM (inactive) | > 100 µM (inactive) | > 100 µM (inactive) | > 100 µM (inactive) | – | > 100 µM (inactive) | –
Cc1ccc(Cc2n[nH]c(=O)n2-c2ccccc2)cc1 | > 100 µM (inactive) | > 100 µM (inactive) | – | > 100 µM | – | > 100 µM (inactive) | – | – | > 100 µM (inactive) | > 100 µM (inactive) | – | > 100 µM (inactive) | > 100 µM (inactive) | > 100 µM (inactive) | 36.1 µM (inactive) | 20.2 µM (inactive) | 37.5 µM (inactive) | – | 55.3 µM (inactive) | –
Cc1cc2c(C(C)C)c(O)c(O)c(/C=N\CCO)c2c(O)c1-c1c(C)cc2c(C(C)C)c(O)c(O)c(/C=N/CCO)c2c1O | 5.24 µM (inactive) | – | 2.28 µM (inactive) | 1.51 µM | 1.75 µM (inactive) | 0.74 µM (active) | 1.64 µM (inactive) | 1.83 µM (inactive) | 1.76 µM (inactive) | 1.12 µM (active) | 2.02 µM (inactive) | 3.3 µM (inactive) | 1.73 µM (inactive) | 1.21 µM (inactive) | 1.19 µM (inactive) | 3.56 µM (inactive) | 3.36 µM (inactive) | 2.04 µM (inactive) | 2.74 µM (inactive) | –
CN1c2ccccc2C(=O)Nc2cnc(Cl)nc21 | > 100 µM (inactive) | > 100 µM (inactive) | > 100 µM (inactive) | > 100 µM | 35.7 µM (inactive) | > 100 µM (inactive) | > 100 µM (inactive) | > 100 µM (inactive) | > 100 µM (inactive) | – | > 100 µM (inactive) | 65.2 µM (inactive) | > 100 µM (inactive) | 45.5 µM (inactive) | > 100 µM (inactive) | > 100 µM (inactive) | 73.6 µM (inactive) | 64.6 µM (inactive) | > 100 µM (inactive) | –
O=[N+]([O-])c1cccc(S(=O)(=O)N/N=C/c2cc(I)cc([N+](=O)[O-])c2O)c1 | 20.3 µM (inactive) | – | 29 µM (inactive) | 24.5 µM | 16.8 µM (inactive) | 32.4 µM (inactive) | 27.9 µM (inactive) | 27.2 µM (inactive) | 22 µM (inactive) | 34 µM (inactive) | 21.4 µM (inactive) | 25.6 µM (inactive) | 22.7 µM (inactive) | 20.9 µM (inactive) | 37 µM (inactive) | 26.4 µM (inactive) | > 100 µM (inactive) | 18.8 µM (inactive) | 22 µM (inactive) | –
Cc1nc(N)sc1/N=N/c1ccccc1Br | 43.5 µM (inactive) | 34.7 µM (inactive) | 18.3 µM (inactive) | 33.7 µM | 18 µM (inactive) | 33.5 µM (inactive) | > 48.9 µM (inactive) | 37.7 µM (inactive) | 28.2 µM (inactive) | 22.9 µM (inactive) | 38.2 µM (inactive) | > 54.3 µM (inactive) | 31.3 µM (inactive) | 31 µM (inactive) | 65.3 µM (inactive) | 21.8 µM (inactive) | 14.2 µM (inactive) | 14.2 µM (inactive) | 28.6 µM (inactive) | –
COC(=O)CCC(=O)CC(=O)C(=O)Nc1c(Cl)cc([N+](=O)[O-])cc1Cl | 61.8 µM (inactive) | – | 51.8 µM (inactive) | 55.6 µM | 38.7 µM (inactive) | > 100 µM (inactive) | 52.1 µM (inactive) | > 100 µM (inactive) | > 100 µM (inactive) | > 100 µM (inactive) | > 100 µM (inactive) | > 100 µM (inactive) | > 100 µM (inactive) | > 100 µM (inactive) | 33.4 µM (inactive) | > 100 µM (inactive) | 57.3 µM (inactive) | 45.3 µM (inactive) | > 100 µM (inactive) | –
O=C1C(N2C(=O)c3ccccc3C2=O)CN1C(COCc1ccccc1)c1ccc(OCc2ccccc2)cc1 (configuration not stated) | > 100 µM (inactive) | – | > 100 µM (inactive) | > 100 µM | > 100 µM (inactive) | > 100 µM (inactive) | > 100 µM (inactive) | > 100 µM (inactive) | > 100 µM (inactive) | > 100 µM (inactive) | > 100 µM (inactive) | > 100 µM (inactive) | > 100 µM (inactive) | > 100 µM (inactive) | > 100 µM (inactive) | > 100 µM (inactive) | > 100 µM (inactive) | > 100 µM (inactive) | > 100 µM (inactive) | –
COC(=O)[C@]1(c2cc3ccccc3[nH]2)CC2CNC1C1OC(C)(C)OC21 (some centres not stated) | > 100 µM (inactive) | > 100 µM (inactive) | > 100 µM (inactive) | > 100 µM | > 100 µM (inactive) | > 100 µM (inactive) | > 100 µM (inactive) | > 100 µM (inactive) | > 100 µM (inactive) | > 100 µM (inactive) | > 100 µM (inactive) | > 100 µM (inactive) | > 100 µM (inactive) | > 100 µM (inactive) | 61.4 µM (inactive) | 60.1 µM (inactive) | – | > 100 µM (inactive) | > 100 µM (inactive) | –
COc1c(OC2OC(CO)C(O)C(O)C2O)cc2c(c1OC)-c1ccc(OC)c(=O)cc1[C@@H](NC(C)=O)CC2 (some centres not stated) | > 100 µM (inactive) | – | > 100 µM (inactive) | > 100 µM | 45.3 µM (inactive) | 92.7 µM (inactive) | > 100 µM (inactive) | 76.4 µM (inactive) | > 100 µM (inactive) | > 100 µM (inactive) | 39.5 µM (inactive) | > 100 µM (inactive) | 35.2 µM (inactive) | > 100 µM (inactive) | > 82.2 µM (inactive) | 57.4 µM (inactive) | > 100 µM (inactive) | 43.8 µM (inactive) | 51.5 µM (inactive) | –
